US20020009713A1, “Methods for identifying modulators of neuronal growth” (priority 2000, published 2002)

Columns and labels:
[1] = tested on: postnatal sympathetic neurons (SCG neurons); assay: Campenot chamber neurite growth assay; type: cell-based, rat; settings: 50 μM U0126 with 10 ng/ml NGF
Method: We have devised a method for quantitatively assaying neurite growth. In this assay, the cell bodies of neurons are plated in Campenot chamber, a compartmentalized dish that has scratches or grooves in the matrix. The compartments are physically separated from each other by, for example, a Teflon® divider. The cells are placed in the central compartment. The scratches allow neurites to extend from the neuronal cell bodies and into adjacent compartments (FIG. 10A).
Neurites were induced to grow into HGF supplemented side compartments, and then visualized by staining against tubulin. Adenoviral-mediated expression of DN MEK in SCG neurons decreased neuritogenesis by 39% (FIGS. 10B, 10C).
We cultured postnatal sympathetic neurons in Campenot chambers. […] Addition of 50 μM U0126 in conjunction with 10 ng/ml NGF abrogates this growth while having no effects on cell survival (FIG. 15).

rat sympathetic neurons = assay: MTT survival assay of cultured sympathetic neurons; type: cell-based; settings: cultured in NGF or NGF+KCl
Method: Neurons were plated at low density (approximately one ganglion/well) in Nunclon™ 4-well culture dishes (Gibco BRL, Burlington, Ontario, Canada), coated with either rat tail collagen or poly-D-lysine and laminin (both from Collaborative Biomedical Products, Bedford, Mass.). Culture medium was UltraCulture (BioWhittaker, Walkersville, Md.), supplemented with 3% rat serum (Harlan Bioproducts, Madison, Wis.), 2 mM glutamine, 100 U/ml penicillin, 100 μg/ml streptomycin (all from BioWhittaker), and for the first two days, 7 μM cytosine arabinoside (Sigma-Aldrich Canada Ltd., Oakville, Ontario, Canada).
NGF-dependent neurons were selected by culturing sympathetic neurons for five days in the presence of 50 ng/ml NGF. Neurons were washed three times for one hour each in neurotrophin-free media, and were then fed with media containing 10 ng/ml NGF alone, or various concentrations of NGF plus either 100 ng/ml BDNF, 10 μg/ml αBDNF, or a 1:100 dilution of antiserum containing the p75^NTR antibody, REX (Weskamp and Reichardt, Neuron 6: 649-663, 1991). Each condition was repeated in triplicate, and analysis of survival was performed 48 hours later by using nonradioactive cell proliferation (MTT) assays (Celltitre 96; Promega; Belliveau et al., J. Cell Biol. 136:375-388, 1997). Specifically, 50 μl of the MTT reagent was added to 500 μl media in each well, and incubated for two hours at 37° C. After aspiration of the MTT containing media, 100 μl of a 0.065N HCl/isopropanol mixture was added to each well to lyse the cells, and colorimetric analysis was performed using an ELISA reader. For rat sympathetic neurons, 10 ng/ml NGF represents 100% survival, therefore all other values were considered to be relative to 10 ng/ml NGF. For mouse neurons, 7.5 ng/ml NGF represents 100% survival, and was thus considered to be the 100% survival threshold for neuritogenesis experiments.

[2] = tested on: sympathetic neurons exogenously expressing TrkB; settings: U0126 added with 25 ng/ml BDNF, dose-dependent
Method: We transduced postnatal sympathetic neurons with an adenovirus encoding TrkB. In Campenot dishes, these neurons grow processes into compartments containing 25 ng/ml BDNF.

sympathetic neurons = assay: Quantitative dot-blot of MAP2 association with microtubules and microtubule stability; type: cell-based, rat; settings: neurons maintained in NGF or NGF+KCl
Method: FIG. 22 is a schematic illustration showing immuno-dot blot analysis of MAP2 association and tubulin dynamics in SCG neurons. […]
Microtubules were isolated from cultured sympathetic neurons, and the relative amount of MAP2 present per microgram tubulin was determined using quantitative dot-blot analysis. […] Depolarization enhances MAP2 levels and CamKII phosphorylation in sympathetic neurons. We performed western blot analysis of sympathetic neurons treated with 10 ng/ml NGF, 50 mM KCl, or NGF+KCl. Lysates containing equal amounts of protein were separated by SDS-PAGE, transferred to nitrocellulose, and then probed for MAP2, phosphorylated-CamKII, phosphorylated-ERKs, or total ERK protein. KCl increases the amount of MAP2 present in sympathetic neurons, and enhances CamKII phosphorylation.
Inhibition of either CamKII or MEK is sufficient to inhibit activitydependent dendrite formation. Immunocytochemical analysis for MAP2 on sympathetic neurons cultured in the presence of NGF+KCl with or without 10 um KN62, 75 um PD98059, 100 nM H-89 or 10 uM forskolin. […] In this study, microtubule stability was determined in sympathetic neurons maintained in NGF or NGF+KCl, and treated with selective pharmacological inhibitors.

SMILES: N#CC(=C(/N)Sc1ccccc1N)/C(C#N)=C(\N)Sc1ccccc1N [U0126]
- NGF-induced neuronal growth into side compartment [1]: abrogates
- cell survival [1]: no effects
- survival of sympathetic neurons (MTT) (rat sympathetic neurons): None of these compounds perturbs
- TrkB-mediated neuronal growth [2]: dramatically reduced
- KCl-induced increase in microtubule stability (sympathetic neurons): completely inhibit
